This note sets out measurements from patent US12071404B2, “Aza (indole)-, benzothiophene-, and benzofuran-3-sulfonamides” (UCB Pharma GmbH, priority 2016, dated 2024).

GPR17, sequence (Q13304 whole entry): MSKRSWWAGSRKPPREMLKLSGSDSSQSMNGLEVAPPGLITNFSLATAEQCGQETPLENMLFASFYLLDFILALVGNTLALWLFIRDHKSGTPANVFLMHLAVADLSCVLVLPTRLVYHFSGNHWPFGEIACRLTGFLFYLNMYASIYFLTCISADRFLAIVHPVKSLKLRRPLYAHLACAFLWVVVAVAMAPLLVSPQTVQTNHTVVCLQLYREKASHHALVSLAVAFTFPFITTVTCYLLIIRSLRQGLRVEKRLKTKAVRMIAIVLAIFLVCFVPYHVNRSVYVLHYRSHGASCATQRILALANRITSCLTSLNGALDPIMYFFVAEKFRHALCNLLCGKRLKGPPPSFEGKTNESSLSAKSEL

This assay addresses GPR17 (Homo sapiens, UniProt Q13304). Nature of the assay: Calcium mobilization functional assay (GPR17 Ca2+ assay). More on the design: host or cells: Flp-In T-REx CHO. The following applies: CHO hGPR17 cells, inhibition of 50 nM MDL29,951, Calcium 5 dye, FLIPR; read-out: Ca2+ assay pIC50 (converted). Format: cell-based. The protocol: Flp-In T-REx CHO cells stably expressing human GPR17 receptor (CHO hGPR17) from Evi Kostenis' lab (Bonn University, Germany) were cultured at 37° C. in a humidified atmosphere of 5% CO2. Cells were grown in DMEM with Nutrient Mixture F-12 supplemented with hygromycin B (500 μg/mL) and blasticidin (30 μg/mL). Expression from the Flp-In locus was induced by treatment with doxycycline (1 μg/mL) for 16-20 h prior assays.
GPR17 is a G-protein coupled receptor. GPR17 activation triggers Gq-type G-protein signaling resulting in endoplasmic reticulum calcium (Ca^2+) stores release in cytosol which can be measured using Calcium 5 dye, a fluorescent indicator dye of cytosolic Ca^2+ levels. All Examples were tested in GPR17 Ca^2+ assay to determine (screen) their GPR17 modulating activity.
CHO hGPR17 were defrosted and seeded at a density of 20,000 cells per well into black 384-well plates with clear bottom. Cells were incubated overnight at 37° C. in a humidified atmosphere of 5% CO2. Sixteen to twenty hours after seeding, CHO hGPR17 were loaded for 60 min with Calcium 5 dye, a cytosolic Ca^2+ indicator fluorescent dye, according to manufacturer's instructions. Fluorescent signal relative to cytosolic Ca^2+ concentration was recorded over time at room temperature in FLIPR Tetra reader. […] Then, 50 nM MDL29,951, a GPR17 agonist, was added to the cells. Inhibitory effects of varying concentrations test compounds were measured and resulting plC50s were determined. […] Analysis and curve fitting were performed in ActivityBase XE using XLfit 4-parameter logistic equation y=A+((B−A)/(1+((C/x)^D))) where A, B, C and D stand for minimum y, maximum y, IC50 and slope, respectively.
The activities of the Example compounds tested are depicted in the table in Section B2B below. The activity ranges A, B and C refer to plC50 values in the Ca^2+ assay as follows: “A”: plC50<7.5, “B”: plC50 7.5<x≤ 8.5, “C”: plC50>8.5
As to `COc1ccc2c(S(=O)(=O)Nc3cc(F)c(F)cc3F)c[nH]c2c1` [Compound I-2, 6-methoxy-N-(2,4,5-trifluorophenyl)-1H-indole-3-sulfonamide], the IC50 was over 0.0316 µM.

With `O=S(=O)(Nc1ccc2ncsc2c1)c1c[nH]c2cc(Cl)ccc12` [Compound I-3, N-(1,3-benzothiazol-6-yl)-6-chloro-1H-indole-3-sulfonamide], the IC50 was over 0.0316 µM.

With `O=S(=O)(Nc1ccc2c(c1)OCO2)c1c[nH]c2cc(Cl)ccc12` [Compound I-5, N-(1,3-benzodioxol-5-yl)-6-chloro-1H-indole-3-sulfonamide], the IC50 was over 0.0316 µM.

Regarding `COC(=O)c1ccc(NS(=O)(=O)c2c[nH]c3cc(Cl)ccc23)cc1` [Compound I-6, methyl 4-{[(6-chloro-1H-indol-3-yl)sulfonyl]amino}benzoate], the IC50 was over 0.0316 µM.

For `Cc1ccc(NS(=O)(=O)c2c[nH]c3cc(Cl)ccc23)cc1F` [Compound I-7, 6-chloro-N-(3-fluoro-4-methylphenyl)-1H-indole-3-sulfonamide], the IC50 is over 0.0316 µM.

`O=S1(=O)CCc2ccc(NS(=O)(=O)c3c[nH]c4cc(Cl)ccc34)cc21` [Compound I-10, 6-chloro-N-(1,1-dioxido-2,3-dihydro-1-benzothiophen-6-yl)-1H-indole-3-sulfonamide]: the IC50 is over 0.0316 µM.

As to `O=S(=O)(Nc1ccccc1F)c1c[nH]c2cc(Cl)ccc12` [Compound I-11, 6-chloro-N-(2-fluorophenyl)-1H-indole-3-sulfonamide], the IC50 is over 0.0316 µM.

For the compound `N#Cc1ccc(NS(=O)(=O)c2c[nH]c3ccc(Br)cc23)cc1` [Compound I-13, 5-bromo-N-(4-cyanophenyl)-1H-indole-3-sulfonamide], the IC50 is over 0.0316 µM.

Consider `N#Cc1ccc(NS(=O)(=O)c2c[nH]c3ccc(I)cc23)cc1` [Compound I-15, N-(4-cyanophenyl)-5-iodo-1H-indole-3-sulfonamide], for which the IC50 is over 0.0316 µM.

Regarding `N#Cc1ccc(NS(=O)(=O)c2c[nH]c3c(Cl)cccc23)cc1` [Compound I-16, 7-chloro-N-(4-cyanophenyl)-1H-indole-3-sulfonamide], the IC50 was over 0.0316 µM.

In the case of `N#Cc1ccc(NS(=O)(=O)c2c[nH]c3ccc(Cl)cc23)cc1` [Compound I-17, 5-chloro-N-(4-cyanophenyl)-1H-indole-3-sulfonamide], the IC50 was over 0.0316 µM.

Take `Cc1cc2c(S(=O)(=O)Nc3ccc(C#N)cc3)c[nH]c2cc1Br` [Compound I-18, 6-bromo-N-(4-cyanophenyl)-5-methyl-1H-indole-3-sulfonamide]: the IC50 was 0.00316 to 0.0316 µM.

As for `N#Cc1ccc(NS(=O)(=O)c2c[nH]c3cc4c(cc23)OCO4)cc1` [Compound I-19, N-(4-cyanophenyl)-5H-[1,3]dioxolo[4,5-f]indole-7-sulfonamide], the IC50 is over 0.0316 µM.

On to `Cc1ccc2c(S(=O)(=O)Nc3ccc(C#N)cc3)c[nH]c2c1` [Compound I-20, N-(4-cyanophenyl)-6-methyl-1H-indole-3-sulfonamide], for which the IC50 was 0.00316 to 0.0316 µM.

In the case of `O=S(=O)(Nc1cc(F)cc(F)c1)c1c[nH]c2cc(Cl)ccc12` [Compound I-21, 6-chloro-N-(3,5-difluorophenyl)-1H-indole-3-sulfonamide], the IC50 was over 0.0316 µM.

On to `C#Cc1ccc(NS(=O)(=O)c2c[nH]c3cc(Cl)ccc23)cc1` [Compound I-22, 6-chloro-N-(4-ethynylphenyl)-1H-indole-3-sulfonamide], for which the IC50 is over 0.0316 µM.

As to `O=S(=O)(Nc1cccc(F)c1Cl)c1c[nH]c2cc(Cl)ccc12` [Compound I-23, 6-chloro-N-(2-chloro-3-fluorophenyl)-1H-indole-3-sulfonamide], the IC50 is over 0.0316 µM.

Take `O=S(=O)(Nc1ccccc1Cl)c1c[nH]c2cc(Cl)ccc12` [Compound I-26, 6-chloro-N-(2-chlorophenyl)-1H-indole-3-sulfonamide]: the IC50 was over 0.0316 µM.

In the case of `Cc1cc2c(S(=O)(=O)Nc3cc(F)ccc3F)c[nH]c2cc1Br` [Compound I-27, 6-bromo-N-(2,5-difluorophenyl)-5-methyl-1H-indole-3-sulfonamide], the IC50 is over 0.0316 µM.

For the compound `CS(=O)(=O)c1ccc2c(S(=O)(=O)Nc3cc(F)ccc3F)c[nH]c2c1` [Compound I-28, N-(2,5-difluorophenyl)-6-(methylsulfonyl)-1H-indole-3-sulfonamide], the IC50 was over 0.0316 µM.

Take `Cc1ccc2c(S(=O)(=O)Nc3cccc4c3OCO4)c[nH]c2c1` [Compound I-29, N-(1,3-benzodioxol-4-yl)-6-methyl-1H-indole-3-sulfonamide]: the IC50 is over 0.0316 µM.

For the compound `O=S(=O)(Nc1cc(F)ccc1F)c1c[nH]c2cc3c(cc12)OCO3` [Compound I-30, N-(2,5-difluorophenyl)-5H-[1,3]dioxolo[4,5-f]indole-7-sulfonamide], the IC50 is over 0.0316 µM.

As for `O=S(=O)(Nc1cccc2c1OCO2)c1c[nH]c2cc(F)ccc12` [Compound I-31, N-(1,3-benzodioxol-4-yl)-6-fluoro-1H-indole-3-sulfonamide], the IC50 is over 0.0316 µM.

On to `Cc1ccc2c(S(=O)(=O)Nc3cc(F)ccc3F)c[nH]c2c1` [Compound I-32, N-(2,5-difluorophenyl)-6-methyl-1H-indole-3-sulfonamide], for which the IC50 was over 0.0316 µM.

Regarding `CS(=O)(=O)c1ccc2c(S(=O)(=O)Nc3cccc4c3OCO4)c[nH]c2c1` [Compound I-33, N-(1,3-benzodioxol-4-yl)-6-(methylsulfonyl)-1H-indole-3-sulfonamide], the IC50 was over 0.0316 µM.

As for `C#Cc1ccc(NS(=O)(=O)c2c[nH]c3cc(S(C)(=O)=O)ccc23)cc1` [Compound I-34, N-(4-ethynylphenyl)-6-(methylsulfonyl)-1H-indole-3-sulfonamide], the IC50 is over 0.0316 µM.

For `Cc1cc2c(S(=O)(=O)Nc3cccc4c3OCO4)c[nH]c2cc1Br` [Compound I-35, N-(1,3-benzodioxol-4-yl)-6-bromo-5-methyl-1H-indole-3-sulfonamide], the IC50 was over 0.0316 µM.

Take `CS(=O)(=O)c1ccc2c(S(=O)(=O)Nc3ccc4c(c3)OC(F)(F)O4)c[nH]c2c1` [Compound I-36, N-(2,2-difluoro-1,3-benzodioxol-5-yl)-6-(methylsulfonyl)-1H-indole-3-sulfonamide]: the IC50 is over 0.0316 µM.

As to `O=S(=O)(Nc1cc(F)ccc1F)c1c[nH]c2cc(F)ccc12` [Compound I-37, N-(2,5-difluorophenyl)-6-fluoro-1H-indole-3-sulfonamide], the IC50 is over 0.0316 µM.

Take `O=S(=O)(Nc1cc(F)ccc1Br)c1c[nH]c2cc(Cl)ccc12` [Compound I-38, N-(2-bromo-5-fluorophenyl)-6-chloro-1H-indole-3-sulfonamide]: the IC50 is over 0.0316 µM.

On to `O=S(=O)(Nc1cc(Cl)cc(Cl)n1)c1c[nH]c2cc(Cl)ccc12` [Compound I-40, 6-chloro-N-(4,6-dichloropyridin-2-yl)-1H-indole-3-sulfonamide], for which the IC50 was over 0.0316 µM.

As for `O=S(=O)(Nc1cc(F)c(F)cc1F)c1c[nH]c2cc(F)ccc12` [Compound I-41, 6-fluoro-N-(2,4,5-trifluorophenyl)-1H-indole-3-sulfonamide], the IC50 was over 0.0316 µM.

For the compound `O=S(=O)(Nc1ccc(I)cc1F)c1c[nH]c2cc(C(F)(F)F)ccc12` [Compound I-42, N-(2-fluoro-4-iodophenyl)-6-(trifluoromethyl)-1H-indole-3-sulfonamide], the IC50 is over 0.0316 µM.

`O=S(=O)(Nc1ccc(Cl)cc1F)c1c[nH]c2cc3c(cc12)OCO3` [Compound I-43, N-(4-chloro-2-fluorophenyl)-5H-[1,3]dioxolo[4,5-f]indole-7-sulfonamide]: the IC50 was over 0.0316 µM.

Consider `O=S(=O)(Nc1ccc(Cl)cc1F)c1c[nH]c2c1ccc1ccccc12` [Compound I-45, N-(4-chloro-2-fluorophenyl)-1H-benzo[g]indole-3-sulfonamide], for which the IC50 is over 0.0316 µM.

With `O=S(=O)(Nc1cc(F)c(F)cc1F)c1c[nH]c2cc3c(cc12)OCO3` [Compound I-46, N-(2,4,5-trifluorophenyl)-5H-[1,3]dioxolo[4,5-f]indole-7-sulfonamide], the IC50 was over 0.0316 µM.

For `O=S(=O)(Nc1ccc(I)cc1F)c1c[nH]c2c1ccc1ccccc12` [Compound I-47, N-(2-fluoro-4-iodophenyl)-1H-benzo[g]indole-3-sulfonamide], the IC50 is over 0.0316 µM.

Turning to `O=S(=O)(Nc1ccc(Cl)cc1F)c1c[nH]c2cc(F)ccc12` [Compound I-51, N-(4-chloro-2-fluorophenyl)-6-fluoro-1H-indole-3-sulfonamide], the IC50 was over 0.0316 µM.

On to `O=S(=O)(Nc1ccc(Cl)cc1F)c1c[nH]c2cc(C(F)(F)F)ccc12` [Compound I-53, N-(4-chloro-2-fluorophenyl)-6-(trifluoromethyl)-1H-indole-3-sulfonamide], for which the IC50 is over 0.0316 µM.
